Key:
[1] = tested on: Schwann cell-DRG neuron co-cultures; experiment: DRG neuron and Schwann cell myelinating co-cultures, MBP+ myelin quantification; format: cell-based
Procedure: Primary Schwann Cell Culture.
Dorsal Root Ganglia (DRG) Neuron Cell Culture. DRG neurons were isolated from E18 embryos of Sprague-Dawley rats and 5,000 neurons were seeded in laminin/poly-L-lysine coated 48 well plates. Primary DRG neurons were maintained in Neurobasal media supplemented with B27 containing antioxidants, 50 ng/mL NGF, and 1 μM Ara-C. 1 μM Ara-C treatment was performed three times for two days each time following two days of fresh medium without Ara-C to eliminate fibroblasts. After two weeks, DRG neurons with extensive axons were seeded with Schwann cells for myelination tests (Syed et al., The Journal of Neuroscience 30:6122-6131 (2010)).
DRG Neuron and Schwann Cell Myelinating Co-cultures. Thirty thousand (30,000) Schwann cells were plated onto the DRG neurons per well. Co-cultures were maintained in differentiation media (DMEM/F12 (1:1), 50 ng/mL NGF, 1× N2 supplement) for a week. Co-cultures were then changed to myelinating medium (MEM, 50 ng/mL NGF, 50 μg/mL ascorbic acid, 10% FBS) for two weeks. Medium was changed every two days (Syed et al., The Journal of Neuroscience 30:6122-6131 (2010)). EPO was added three times at day 6 of differentiating stage, day 1, and day 3 of myelinating stage.
Myelin Quantification. To quantify the extent of myelination in co-cultures, the total number of MBP+ myelin was counted within the whole culture well and normalized by the total cell number (DAPI+).
To determine whether EPO enhances Schwann cell-mediated myelination directly we exposed Schwann cell-DRG neuron co-cultures to various concentrations of EPO (1, 10, 100 unit/mL of EPO). In FIG. 15A, every single short thread-like MBP+ staining cells representing a myelin formed by a single myelinating Schwann cell wrapped around the axon.

[2] = intravenous and oral gelatin-based capsule treatments; cited from earlier work
crushed sciatic nerve [3] = experiment: Sciatic nerve crush injury, sciatic function index (SFI) by walking track analysis; format: in vivo, mice
Procedure: There are also possible effects of the 4-AP on nerve injuries suffered more acutely. Acute nerve injury is both common and difficult to treat. One type of acute peripheral nerve injury with a murine model available for study is the sciatic nerve crush injury model in mice and rats. In this model, the nerve is crushed with a variable amount of force which creates a measurable functional deficit in gait. This deficit is measured using a sciatic function index which is an accepted and validated measure of the functional effects of the injury.
(§1) Mouse Model of Peripheral Nerve Injury. All procedures were approved by the University of Rochester Committee on Animal Resources. Female 10-week-old C57BL6 mice were performed sciatic nerve crush injury on the left hindlimb and the sham-surgery on the other one. All extensive surgery procedures were as described previously (Elfar et al., The Journal of Bone and Joint Surgery, 90: 1644-1653 (2008)). rhEPO was administered immediately at a dose of 5000 U/kg (Juul, Acta Paediatrica 91:36-42 (2002), Bianchi et al., PNAS 101:823-828 (2004), and Elfar et al., The Journal of Bone and Joint Surgery, 90:1644-1653 (2008)).
Sciatic Function Index (SFI) Determined by Walking Track Analysis. The assessment of motor function recovery was performed by calculating the sciatic function index (SFI). Walking track analysis was performed according to a published model that quantifies sciatic nerve function performance (de Medinaceli et al., Exp. Neurol. 77:634-643 (1982)). The operating procedure is extensively described previously (Elfar et al., The Journal of Bone and Joint Surgery, 90:1644-1653 (2008)). In brief, individual mouse footprints were obtained by painting each foot and walked down the 50 cm path in a narrow corridor lined with paper. Gaits were measured from the resulting footprints to get (1) toe spread (TS) (first through fifth toes), (2) print length (PL), and (3) intermediate toe spread (ITS) (second, third, and fourth toes) of both limbs (Gladman et al., The Journal of Neuroscience, 32:563-571 (2012)). All three measurements from the three most clearly inked foot prints per run were taken from the normal (N) and experimental (E) sides, and the SFI were calculated using the following formula: SFI=−38.3((EPL−NPL)/NPL)+109.5((ETS−NTS)/NTS)+13.3((EIT−NIT)/NIT)−8.8 where E is the injured limb and N is the control limb.

compressed nerves = experiment: Nerve conduction velocity of chronically compressed nerve (sleeve around the nerve); format: in vivo, mice; conditions: 4-AP IP single bolus; 7, 9, 12 weeks of compression
Procedure: FIGS. 1A, 1B and 1C show graphs of nerve conduction velocity at 7 weeks (FIG. 1A), 9 weeks (FIG. 1B) and 12 weeks (FIG. 1C) of compression and treatment with high dose 4-AP (HD), low dose of 4-AP (LD), and saline (Sal). 4-AP was administered IP in a single dose as a bolus.
The concept that 4-AP may have a role in the treatment of compressed nerves emanates from data showing that the conduction velocity of compressed nerves can respond strongly to pharmacologic treatment with this agent. […] Therefore, 4-AP may be used locally or systemically for the treatment of chronic compression injury.

crushed sciatic nerve [4] = experiment: Immunofluorescent staining of myelinated (P0+) and total (neurofilament+) axons in crushed sciatic nerve; format: in vivo, mice; conditions: systemic EPO directly after crush; 7 days post-injury
Source text: FIGS. 14A, 14B, and 14C are images and a graph showing EPO supported preservation of myelin within crushed nerves. FIG. 14A is an image of the immunofluorescent staining of destroyed myelin sheath at the injured site 7 days post-injury. FIG. 14B is an image showing immunofluorescent staining of myelinated axons and total axons in the cross sections of sciatic nerves 7 days post-injury. Representative images of the cross sections of the sciatic nerves (a, d: healthy nerve; b, c, e, f: crushed nerve). FIG. 14C is a graph showing the ratio of the number of myelinated axon to total axons of crushed sciatic nerves with or without EPO administration. (unpaired t-test, n=3, three animals for each set, p<0.01).
as §1
To work towards the underlying action by which EPO works, it was noticed that the speed of recovery in injured mice was too rapid to be attributable to axonal regeneration. 4-aminopyridine (4-AP) is a potassium channel blocker which enables demyelinated axons to conduct impulses, and thus can be used to identify injuries in which whether there exist anatomically intact but demyelinated axons. Mice receiving a sciatic nerve crush injury, performed poorly in SFI tests 3 days after injury. […] The effect of 4-AP raises the possibility that the benefits of EPO may be due to preservation of myelin and/or improvement of remyelination. […] In untreated mice only 25% of axons (neurofilament+) were associated with myelin (P0+) whereas EPO treatment raised this ratio to 60%.

[5] = tested on: glutathione S-transferase and gamma-glutamylcysteine synthetase; conditions: 100 U/mL EPO, isolated Schwann cell cultures
Source text: (unpaired t-test, n=4, p<0.01) FIG. 15D is a gel image of immunoblotting of glutathione S-transferase and gamma-glutamylcysteine synthetase levels in Schwann cells with 100 U/mL EPO treatment.

## CC(=O)NC(C(=O)O)C(C)(C)SN=O (racemic) [SNAP, S-Nitroso-N-acetyl-DL-penicillamine, reference compound]
[1]; 100 μM SNAP
  baseline myelination: robust decrease in baseline myelination
  cell death: significant cell death was not observed

## Nc1ccncc1 [4-AP, 4-aminopyridine]
[2]
  plasma half-life: 3 to 4 h
  time to maximum plasma concentration: about 1 hour
Crushed sciatic nerve [3]; 4-AP administered systemically on day 3 or day 5 after crush injury
  sciatic function index (gait): large improvement in the function of the animals gait
Crushed sciatic nerve [3]; intraperitoneal 100 μg 4-AP, 3 days after injury
  SFI: significant transient improvement in SFI
Compressed nerves
  conduction velocity of compressed nerve (ratio to contralateral uninjured nerve): strong effects of 4-AP administration was seen

## EPO: Recombinant human erythropoietin, 30.4-kDa hematopoietic glycoprotein
Crushed sciatic nerve [3]; local EPO in fibrin glue vehicle at the site of crush injury, 0.5 U
  functional improvements in SFI over control groups: 15%
Crushed sciatic nerve [3]; single subcutaneous EPO 5000 U/kg directly after injury, 7 days after injury
  SFI function, higher than in untreated animals: 20%
Crushed sciatic nerve [3]; single subcutaneous EPO 5000 U/kg directly after injury, day 14 after injury
  SFI more restored compared to control group: 15%
Crushed sciatic nerve [3]; systemic EPO 5000 U/kg, seven days post-surgery
  hind limb / foot appearance: close-to-normal appearance
[1]; 100 μM SNAP with 100 U/mL EPO
  myelin formation under NO stress: notably recovered myelin formation
[1]; 1, 10, 100 unit/mL of EPO
  total number of MBP+ myelin: increased the total number of the MBP+ myelin in co-culture and was found to be dose-dependent
Crushed sciatic nerve [4]
  number of axons: without significantly altering the number of axons
  number of myelinated fibers versus untreated: almost tripled
  ratio of myelinated (P0+) axons to total axons (neurofilament+): 60%
[5]
  glutathione S-transferase and gamma-glutamylcysteine synthetase levels: up-regulated

— patent US11654110B2, “Composition and methods for the treatment of peripheral nerve injury” (UNIVERSITY OF ROCHESTER, priority 2013, dated 2023)
